According to patent US20230312587A1, “PTERIDINONE COMPOUNDS AND USES THEREOF” (Vertex Pharmaceutical Incorporated, priority 2018, published 2023):

system: β-catenin-TCF-mediated reporter transcription activity in Colo 205 cells; assay: Colo 205 reporter assay (TCF/LEF luciferase); type: cell-based; settings: Homo sapiens, COLO 205, 5 h, Colo 205 TCF/LEF luciferase reporter, five hours after addition of compound; read-out: TCF reporter Colo205 IC50
Outline: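 Luciferase signal from a TCF/LEF-driven reporter, stably integrated in Colo 205 colon cancer cells, was measured 5 h after compound addition.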

Compound	IC50
Cc1nc(NCc2cnn(Cc3ccc(Cl)nc3)c2)nc2c1NC(=O)[C@H](C1CCC1)N2C [Compound 566, (7S)-2-(((1-((6-chloropyridin-3-yl)methyl)-1H-pyrazol-4-yl)methyl)amino)-7-cyclobutyl-4,8-dimethyl-7,8-dihydropteridin-6(5H)-one]	< 300 nM
Cc1nc(NCc2cnn(Cc3ccc(C(F)(F)F)nc3)c2)nc2c1NC(=O)[C@H](C1CCC1)N2C [Compound 567, (7S)-7-cyclobutyl-4,8-dimethyl-2-(((1-((6-(trifluoromethyl)pyridin-3-yl)methyl)-1H-pyrazol-4-yl)methyl)amino)-7,8-dihydropteridin-6(5H)-one]	< 300 nM
CO[C@H](C)[C@H]1C(=O)Nc2c(C)nc(NC3CN(C(=O)c4cc(F)c(F)c(F)c4)C3)nc2N1C [Compound 568, (S)-7-((R)-1-methoxyethyl)-4,8-dimethyl-2-((1-(3,4,5-trifluorobenzoyl)azetidin-3-yl)amino)-7,8-dihydropteridin-6(5H)-one]	< 300 nM
Cc1nc(N[C@H]2C[C@@H](Nc3nc(C(F)(F)F)nn3C)C2)nc2c1NC(=O)[C@H](C(C)C)N2C [Compound 569, (S)-7-isopropyl-4,8-dimethyl-2-((cis-3-((1-methyl-3-(trifluoromethyl)-1H-1,2,4-triazol-5-yl)amino)cyclobutyl)amino)-7,8-dihydropteridin-6(5H)-one]	1000 to 5000 nM
Cc1nc(N[C@H]2C[C@@H](COc3ccc(Cl)nc3)C2)nc2c1NC(=O)[C@H](C(C)C)N2C [Compound 570, (S)-2-((cis-3-(((6-chloropyridin-3-yl)oxy)methyl)cyclobutyl)amino)-7-isopropyl-4,8-dimethyl-7,8-dihydropteridin-6(5H)-one]	< 300 nM
Cc1ccc(OC[C@H]2C[C@@H](Nc3nc(C)c4c(n3)N(C)[C@@H](C(C)C)C(=O)N4)C2)cn1 [Compound 571, (S)-7-isopropyl-4,8-dimethyl-2-((cis-3-(((6-methylpyridin-3-yl)oxy)methyl)cyclobutyl)amino)-7,8-dihydropteridin-6(5H)-one]	300 to 1000 nM
Cc1nc(N[C@H]2C[C@@H](COc3ccc(C#N)nc3)C2)nc2c1NC(=O)[C@H](C(C)C)N2C [Compound 572, 5-((cis-3-(((S)-7-isopropyl-4,8-dimethyl-6-oxo-5,6,7,8-tetrahydropteridin-2-yl)amino)cyclobutyl)methoxy)picolinonitrile]	< 300 nM
COc1ccc(OC[C@H]2C[C@@H](Nc3nc(C)c4c(n3)N(C)[C@@H](C(C)C)C(=O)N4)C2)cn1 [Compound 573, (S)-7-isopropyl-2-((cis-3-(((6-methoxypyridin-3-yl)oxy)methyl)cyclobutyl)amino)-4,8-dimethyl-7,8-dihydropteridin-6(5H)-one]	< 300 nM
Cc1nc(N[C@H]2C[C@@H](COc3ccc(F)nc3)C2)nc2c1NC(=O)[C@H](C(C)C)N2C [Compound 574, (S)-2-((cis-3-(((6-fluoropyridin-3-yl)oxy)methyl)cyclobutyl)amino)-7-isopropyl-4,8-dimethyl-7,8-dihydropteridin-6(5H)-one]	< 300 nM
Cc1nc(N[C@H]2C[C@@H](COc3cnn(C)c3C(F)(F)F)C2)nc2c1NC(=O)[C@H](C(C)C)N2C [Compound 575, (S)-7-isopropyl-4,8-dimethyl-2-((cis-3-(((1-methyl-5-(trifluoromethyl)-1H-pyrazol-4-yl)oxy)methyl)cyclobutyl)amino)-7,8-dihydropteridin-6(5H)-one]	< 300 nM
Cc1nc(N[C@H]2C[C@@H](Nc3ccc(OC(F)(F)F)cn3)C2)nc2c1NC(=O)[C@H](C(C)C)N2C [Compound 576, (S)-7-isopropyl-4,8-dimethyl-2-((cis-3-((5-(trifluoromethoxy)pyridin-2-yl)amino)cyclobutyl)amino)-7,8-dihydropteridin-6(5H)-one]	< 300 nM
Cc1nc(N[C@H]2C[C@@H](Nc3ccc(OC(F)(F)F)cn3)C2)nc2c1NC(=O)[C@H](C)N2C [Compound 577, (S)-4,7,8-trimethyl-2-((cis-3-((5-(trifluoromethoxy)pyridin-2-yl)amino)cyclobutyl)amino)-7,8-dihydropteridin-6(5H)-one]	300 to 1000 nM
Cc1nc(N[C@H]2C[C@H](Nc3cnc(C(F)(F)F)cn3)C2)nc2c1NC(=O)[C@H](C)N2C [Compound 579, (S)-4,7,8-trimethyl-2-((trans-3-((5-(trifluoromethyl)pyrazin-2-yl)amino)cyclobutyl)amino)-7,8-dihydropteridin-6(5H)-one]	1000 to 5000 nM
Cc1nc(N[C@H]2C[C@@H](COc3ccc4c(c3)OCO4)C2)nc2c1NC(=O)[C@H](C(C)C)N2C [Compound 580, (S)-2-((cis-3-((benzo[d][1,3]dioxol-5-yloxy)methyl)cyclobutyl)amino)-7-isopropyl-4,8-dimethyl-7,8-dihydropteridin-6(5H)-one]	300 to 1000 nM
Cc1nc(N[C@H]2C[C@@H](Cn3nc(C4CC4)cc3C(F)(F)F)C2)nc2c1NC(=O)[C@H](C(C)C)N2C [Compound 581, (S)-2-((cis-3-((3-cyclopropyl-5-(trifluoromethyl)-1H-pyrazol-1-yl)methyl)cyclobutyl)amino)-7-isopropyl-4,8-dimethyl-7,8-dihydropteridin-6(5H)-one]	< 300 nM
Cc1cc(C(F)(F)F)n(C[C@H]2C[C@@H](Nc3nc(C)c4c(n3)N(C)[C@@H](C(C)C)C(=O)N4)C2)n1 [Compound 582, (S)-7-isopropyl-4,8-dimethyl-2-((cis-3-((3-methyl-5-(trifluoromethyl)-1H-pyrazol-1-yl)methyl)cyclobutyl)amino)-7,8-dihydropteridin-6(5H)-one]	300 to 1000 nM
Cc1nc(N[C@H]2C[C@@H](Cn3ccc(Cl)n3)C2)nc2c1NC(=O)[C@H](C(C)C)N2C [Compound 583, (S)-2-((cis-3-((3-chloro-1H-pyrazol-1-yl)methyl)cyclobutyl)amino)-7-isopropyl-4,8-dimethyl-7,8-dihydropteridin-6(5H)-one]	< 300 nM
Cc1nc(N[C@H]2C[C@@H](Cn3nc(N)cc3C(F)(F)F)C2)nc2c1NC(=O)[C@H](C(C)C)N2C [Compound 584, (S)-2-((cis-3-((3-amino-5-(trifluoromethyl)-1H-pyrazol-1-yl)methyl)cyclobutyl)amino)-7-isopropyl-4,8-dimethyl-7,8-dihydropteridin-6(5H)-one]	≥ 5000 nM
Cc1nc(N[C@H]2C[C@@H](Cn3nc(C(F)(F)F)cc3N)C2)nc2c1NC(=O)[C@H](C(C)C)N2C [Compound 585, (S)-2-((cis-3-((5-amino-3-(trifluoromethyl)-1H-pyrazol-1-yl)methyl)cyclobutyl)amino)-7-isopropyl-4,8-dimethyl-7,8-dihydropteridin-6(5H)-one]	300 to 1000 nM
Cc1nc(N[C@H]2C[C@@H](Nc3ccc(C(F)(F)F)nc3)C2)nc2c1NC(=O)[C@H](C(C)C)N2C [Compound 586, (S)-7-isopropyl-4,8-dimethyl-2-((cis-3-((6-(trifluoromethyl)pyridin-3-yl)amino)cyclobutyl)amino)-7,8-dihydropteridin-6(5H)-one]	< 300 nM
Cc1nc(N[C@H]2C[C@H](Nc3ccc(C(F)(F)F)nc3)C2)nc2c1NC(=O)[C@H](C(C)C)N2C [Compound 587, (S)-7-isopropyl-4,8-dimethyl-2-((trans-3-((6-(trifluoromethyl)pyridin-3-yl)amino)cyclobutyl)amino)-7,8-dihydropteridin-6(5H)-one]	300 to 1000 nM
CO[C@H](C)[C@H]1C(=O)Nc2c(C)nc(N[C@H]3C[C@@H](Cn4nccc4C(F)(F)F)C3)nc2N1C [Compound 588, (S)-7-((R)-1-methoxyethyl)-4,8-dimethyl-2-((cis-3-((5-(trifluoromethyl)-1H-pyrazol-1-yl)methyl)cyclobutyl)amino)-7,8-dihydropteridin-6(5H)-one]	< 300 nM
Cc1nc(NCc2cnn(Cc3ccc(C(F)(F)F)nc3)c2)nc2c1NC(=O)[C@H](COC(C)(C)C)N2C [Compound 590, (S)-7-(tert-butoxymethyl)-4,8-dimethyl-2-(((1-((6-(trifluoromethyl)pyridin-3-yl)methyl)-1H-pyrazol-4-yl)methyl)amino)-7,8-dihydropteridin-6(5H)-one]	300 to 1000 nM
Cc1nc(NC2CN(Cc3cc(F)c(F)c(F)c3)C2)nc2c1NC(=O)[C@H](C(C)C)N2C [Compound 591, (S)-7-isopropyl-4,8-dimethyl-2-((1-(3,4,5-trifluorobenzyl)azetidin-3-yl)amino)-7,8-dihydropteridin-6(5H)-one]	< 300 nM
Cc1nc(NC2CN(S(=O)(=O)c3ccc(F)cc3)C2)nc2c1NC(=O)[C@H](C(C)C)N2C [Compound 592, (7S)-2-((1-((4-fluorophenyl)sulfonyl)azetidin-3-yl)amino)-7-isopropyl-4,8-dimethyl-7,8-dihydropteridin-6(5H)-one]	≥ 5000 nM
CC[C@H]1C(=O)Nc2c(C)nc(N[C@H]3C[C@@H](Cn4nccc4C(F)(F)F)C3)nc2N1C [Compound 593, (S)-7-ethyl-4,8-dimethyl-2-((cis-3-((5-(trifluoromethyl)-1H-pyrazol-1-yl)methyl)cyclobutyl)amino)-7,8-dihydropteridin-6(5H)-one]	< 300 nM
Cc1nc(NC2CN(C(=O)Cc3ccc(C(F)(F)F)nc3)C2)nc2c1NC(=O)[C@H](C(C)C)N2C [Compound 594, (S)-7-isopropyl-4,8-dimethyl-2-((1-(2-(6-(trifluoromethyl)pyridin-3-yl)acetyl)azetidin-3-yl)amino)-7,8-dihydropteridin-6(5H)-one]	1000 to 5000 nM
Cc1nc(NC2CN(C(=O)Cn3ccc(C(F)(F)F)n3)C2)nc2c1NC(=O)[C@H](C(C)C)N2C [Compound 595, (S)-7-isopropyl-4,8-dimethyl-2-((1-(2-(3-(trifluoromethyl)-1H-pyrazol-1-yl)acetyl)azetidin-3-yl)amino)-7,8-dihydropteridin-6(5H)-one]	300 to 1000 nM
Cc1nc(NC2CN(C(=O)c3cc(C(F)(F)F)nn3C)C2)nc2c1NC(=O)[C@H](C(C)C)N2C [Compound 596, (S)-7-isopropyl-4,8-dimethyl-2-((1-(1-methyl-3-(trifluoromethyl)-1H-pyrazole-5-carbonyl)azetidin-3-yl)amino)-7,8-dihydropteridin-6(5H)-one]	< 300 nM
